Read-outs that look alike come from different tables or passages of the source.
Experiments:
RCC4 = experiment: XTT cell viability assay, RCC4; type: cell-based; settings: Homo sapiens, XTT assay (48 h), standard deviation of 10%, read-out: EC50 (μM) Kidney RCC4
Description: (§1) Fifty microliters of sodium 3′-[1-phenylaminocarbonyl)-3,4-tetrazolium]-bis(4-methoxy-6-nitro) benzene sulfonic acid hydrate (XTT) reagent was added to each well. The assay is based on the cleavage of the yellow tetrazolium salt XTT to form an orange formazan dye by metabolically active cells. The absorbance of the formazan product, reflecting cell viability, was measured at 490 nm. Each assay was performed in quadruplicate.
(§2) Compounds #1-#14 have been assayed as potential anti-proliferative agents against a panel of human breast head and neck, and kidney tumor cells and hematological malignancies, selected on the basis of their aggressiveness (e.g. incurable triple-negative breast cancer cells: MDA-MB-231; kidney ccRCC cells: RCC4, A498 and 786-O and 786R; head and neck cancer cells: CAL33, CAL33RR, CAL27, and CAL27RR; acute myeloid cell lines: OCI-AML2, OCI-AML3, MolM13, and MolM14; myelodysplastic cell line: SM1; and chronic myeloid cell line: CML). All these cell lines share as common denominator the expression of CXCR1 and CXCR2. The EC50 values have been measured by a XTT colorimetric assay, and compared to those of SB-225002, used as a reference; the results are listed in Table 1.

786-O = experiment: XTT cell viability assay, 786-O; type: cell-based, human; settings: Homo sapiens, 786-0; XTT assay (48 h); standard deviation of 10%; read-out: EC50 (μM) Kidney 786-O
Description: (§3) A, B: Naive (786-O, A), and sunitinib-resistant (786-R, B) 786-O cells, were treated with compound #1 or sunitinib (1 to 10 μM) for 48 hr. Cell viability was measured by XTT assays;
(§4) D, E: 786-O (D), 786-R (E), were treated with 2.5 μM compound #1 or 2.5 μM sunitinib for 24 h to 96 h. The cells metabolism was measured by XTT assay;
as §1, §2

MolM13 = experiment: XTT cell viability assay, MolM13; type: cell-based, human; settings: XTT assay (48 h), standard deviation of 10%, read-out: EC50 (μM) AML MolM13
Description: as §1, §2

MDA-MB-231 = experiment: XTT cell viability assay, MDA-MB-231; type: cell-based; settings: Homo sapiens, XTT assay (48 h), standard deviation of 10%, read-out: EC50 (μM) Breast MDA-MB-231
Description: as §1, §2

A498 = experiment: XTT cell viability assay, A498; type: cell-based, human; settings: XTT assay (48 h), standard deviation of 10%, read-out: EC50 (μM) Kidney A498
Description: as §1, §2

SKM1 = experiment: XTT cell viability assay, SKM1; type: cell-based, human; settings: XTT assay (48 h), standard deviation of 10%, read-out: EC50 (μM) MDS SKM1
Description: as §1, §2

MolM14 = experiment: XTT cell viability assay, MolM14; type: cell-based, human; settings: XTT assay (48 h), standard deviation of 10%, read-out: EC50 (μM) AML MolM14
Description: as §1, §2

K562 = experiment: XTT cell viability assay, K562; type: cell-based, human; settings: XTT assay (48 h), standard deviation of 10%, read-out: EC50 (μM) CML K562
Description: as §1, §2

OCI-AML3 = experiment: XTT cell viability assay, OCI-AML3; type: cell-based, human; settings: XTT assay (48 h), standard deviation of 10%
Description: as §1, §2

OCI-AML2 = experiment: XTT cell viability assay, OCI-AML2; type: cell-based, human; settings: XTT assay (48 h), standard deviation of 10%, read-out: EC50 (μM) AML OCI-AML2
Description: as §1, §2

786R = experiment: XTT cell viability assay, 786R (sunitinib-resistant); type: cell-based, human; settings: Homo sapiens, 48 h, XTT assay (48 h); sunitinib-resistant; standard deviation of 10%; read-out: EC50 (μM) Kidney 786R
Description: as §3, §4, §1, §2

CAL27 = experiment: XTT cell viability assay, CAL27; type: cell-based, human; settings: Homo sapiens, CAL-27, 48 h, XTT assay (48 h); standard deviation of 10%; read-out: EC50 (μM) Head and Neck CAL27
Description: (§5) A, B: Naive (Cal27, A), and cisplatine-resistant (Cal27R, B) Cal27 cells, were treated with compound #1 or cisplatine (1 to 10 μM) for 48 hr. Cell viability was measured by XTT assays;
(§6) C, D: Cal27 (C), cal27R (D), were treated with 2.5 μM compound #1, 2.5 μM cisplatin for 24 h to 96 h. The metabolism of cells was measured by XTT assay.
as §1, §2

CAL33RR = experiment: XTT cell viability assay, CAL33RR; type: cell-based; settings: Homo sapiens, light or radiation study; XTT assay (48 h); resistant to irradiation and cisplatin; standard deviation of 10%; read-out: EC50 (μM) Head and Neck CAL33RR
Description: as §1, §2

CAL33 = experiment: XTT cell viability assay, CAL33; type: cell-based; settings: Homo sapiens, CAL-33; XTT assay (48 h); standard deviation of 10%; read-out: EC50 (μM) Head and Neck CAL33
Description: as §1, §2

CAL27RR = experiment: XTT cell viability assay, CAL27RR (cisplatin-resistant); type: cell-based, human; settings: Homo sapiens, light or radiation study; XTT assay (48 h); resistant to irradiation and cisplatin; standard deviation of 10%; read-out: EC50 (μM) Head and Neck CAL27RR
Description: as §5, §6, §1, §2

Row | Compound | EC50 (RCC4) [µM] | EC50 (786-O) [µM] | EC50 (MolM13; Homo sapiens, MOLM-13) [µM] | EC50 (MDA-MB-231) [µM] | EC50 (A498; Homo sapiens, A498) [µM] | EC50 (SKM1; Homo sapiens, SKM-1) [µM] | EC50 (MolM14; Homo sapiens, MOLM-14) [µM] | EC50 (K562; Homo sapiens, K562) [µM] | EC50 (OCI-AML3; Homo sapiens, OCI-AML-3) [µM] | EC50 (OCI-AML2; Homo sapiens, OCI-AML2) [µM] | EC50 (786R) [µM] | EC50 (CAL27) [µM] | EC50 (CAL33RR) [µM] | EC50 (CAL33) [µM] | also measured
1 | Cc1ccc2nc(NC(=O)Nc3ccccc3Cl)sc2c1 [Compound #4, 1-(2-chlorophenyl)-3-(6-methylbenzo[d]thiazol-2-yl)urea] | > 25 | 15 | 15 | > 25 | 15 | 25 | 10 | 25 | 10 | > 25 |  |  |  |  | 
2 | O=C(Nc1ccccc1)Nc1nc2ccccc2[nH]1 [Compound #5, 1-(1H-benzo[d]imidazol-2-yl)-3-phenylurea] | 25 | 20 | 25 | 12 | 10 | 25 | 20 | 10 | 25 | 18 |  |  |  |  | 
3 | O=C(Nc1ccccc1)Nc1nc2ccccc2o1 [Compound #5-1, 1-(benzo[d]oxazol-2-yl)-3-phenylurea, reference compound] | > 25 | > 25 | > 25 | > 25 | > 25 | > 25 | > 25 | > 25 | > 25 | > 25 |  |  |  |  | 
4 | O=C(Nc1ccc(Cl)cc1)Nc1nc2ccccc2[nH]1 [Compound #6, 1-(1H-benzo[d]imidazol-2-yl)-3-(4-chlorophenyl)urea] | 20 | 20 | > 25 | 20 | 9 | > 25 | 20 | 12 | 22 | 20 |  |  |  |  | 
5 | O=C(Nc1nc2ccccc2s1)Nc1ccccc1Cl [Compound #7, 1-(benzo[d]thiazol-2-yl)-3-(2-chlorophenyl)urea] | 25 | > 25 | > 25 | > 25 | > 25 | > 25 | > 25 | > 25 | > 25 | 10 |  |  |  |  | 
6 | O=C(Nc1cccc(Cl)c1)Nc1nc2ccccc2s1 [Compound #8, 1-(benzo[d]thiazol-2-yl)-3-(3-chlorophenyl)urea] | 20 | > 25 | > 25 | > 25 | > 25 | > 25 | > 25 | 25 | > 25 | > 25 |  |  |  |  | 
7 | O=C(Nc1ccc(Cl)cc1)Nc1nc2ccccc2s1 [Compound #9, 1-(benzo[d]thiazol-2-yl)-3-(4-chlorophenyl)urea] | 20 | > 25 | > 25 | > 25 | 25 | > 25 | > 25 | 25 | > 25 | > 25 |  |  |  |  | 
8 | COc1ccc(NC(=O)Nc2nc3ccccc3s2)cc1 [Compound #10, 1-(benzo[d]thiazol-2-yl)-3-(4-methoxyphenyl)urea] | 15 | > 25 | > 25 | > 25 | > 25 | > 25 | > 25 | 25 | > 25 | > 25 |  |  |  |  | 
9 | O=C(Nc1cc(Cl)cc(Cl)c1)Nc1nc2ccc([N+](=O)[O-])cc2s1 [Compound #11, 1-(3,5-dichlorophenyl)-3-(6-nitrobenzo[d]thiazol-2-yl)urea] | 2 | 5 |  |  | 2.5 |  |  |  |  |  | 5 | 2.5 | 4 | 4 | EC50 (CAL27RR): 2.5 µM
10 | O=C(Nc1ccc(Br)cc1)Nc1nc2ccc([N+](=O)[O-])cc2s1 [Compound #12, 1-(4-bromophenyl)-3-(6-nitrobenzo[d]thiazol-2-yl)urea] | 7 | 5 |  |  | 7 |  |  |  |  |  | 5 | 5 | 20 | < 2.5 | EC50 (CAL27RR): 2.5 µM
11 | O=C(Nc1nc2ccc([N+](=O)[O-])cc2s1)Nc1ccccc1Br [Compound #13, 1-(2-bromophenyl)-3-(6-nitrobenzo[d]thiazol-2-yl)urea] | 25 | 15 |  |  | 20 |  |  |  |  |  | 14 | > 25 | > 25 | 8 | 
12 | O=C(Nc1cccc(Cl)c1)Nc1nc2ccc([N+](=O)[O-])cc2[nH]1 [Compound #14, 1-(3-chlorophenyl)-3-(6-nitro-1H-benzo[d]imidazol-2-yl)urea] | 3 | 4 |  |  | 5 |  |  |  |  |  | 4 | 15 | 25 | 15 | EC50 (CAL27RR): 10 µM
13 | O=C(Nc1ccc([N+](=O)[O-])cc1O)Nc1ccccc1Br [SB-225002, reference compound] |  |  |  |  |  |  |  |  |  |  |  |  |  |  | EC50 (MolM13): > 100 µM; EC50 (A498): 70 µM; EC50 (SKM1): > 100 µM; EC50 (MolM14): 90 µM; EC50 (K562): > 100 µM; EC50 (OCI-AML3; read-out: EC50 (μM) AML OCI-AML3): 90 µM; EC50 (OCI-AML2): > 100 µM

Reference: patent US20210380547A1, “UREA DERIVATIVES FOR TREATING AND/OR PREVENTING CANCER” (CENTRE NATIONAL DE LA RECHERCHE SCIENTIFIQUE, priority 2018, published 2021)
